Assay results reported in patent US5593970A, “Heterocyclic anthracycline analogs” (priority 1994, dated 1997).
Values joined by “and” are separate entries in the source; they are usually repeats but may differ in a detail not shown here. Equal entries are not always repeated. Where two headings read alike, the source gives them in different places.

How the values were obtained:
P388/ADR = test: NCI sulforhodamine B assay; type: cell-based, mouse
Protocol: (§1) These assays were carried out at the Developmental Therapeutics Program, Division of Cancer Treatment, National Cancer Institute (Bethesda, Md., U.S.A.). The method consists of incubating varying concentrations of the drug with an inoculum of cells for two days. […] The 57 cell lines included two mouse leukemia lines (P388 parental and adriamycin resistant) and […] human cell lines.
(§2) It should be noted that the first two parameters (GI50 and TGI) relate to antiproliferation effects while the third one (LC50) indicates true cytotoxicity. A value of -4 or greater is considered to denote resistance (inactivity).

P388 = test: NCI sulforhodamine B assay; type: cell-based; settings: Mus musculus, P388, 48 h
Protocol: as §1, §2

XF-498 L = test: NCI sulforhodamine B assay; type: cell-based; settings: Homo sapiens
Protocol: as §1, §2

K-562 = test: NCI sulforhodamine B assay; type: cell-based; settings: Homo sapiens, K562, 48 h, read-out: Log10 TGI (converted)
Protocol: as §1, §2

HCT-116 = test: NCI sulforhodamine B assay; type: cell-based; settings: Homo sapiens
Protocol: as §1, §2

SNB-78 = test: NCI sulforhodamine B assay; type: cell-based; settings: Homo sapiens, SNB-78, 48 h, read-out: Log10 LC50 (converted)
Protocol: as §1, §2

MOLT-4 = test: NCI sulforhodamine B assay; type: cell-based; settings: Homo sapiens, MOLT-4, 48 h; read-out: Log10 TGI (converted)
Protocol: as §1, §2

OVCAR-8 = test: NCI sulforhodamine B assay; type: cell-based; settings: Homo sapiens, read-out: Log10 GI50 (converted)
Protocol: as §1, §2

OVCAR-3 = test: NCI sulforhodamine B assay; type: cell-based; settings: Homo sapiens, read-out: Log10 GI50 (converted)
Protocol: as §1, §2

HOP-18 = test: NCI sulforhodamine B assay; type: cell-based, human
Protocol: as §1, §2

LOX-IMVI = test: NCI sulforhodamine B assay; type: cell-based, human
Protocol: as §1, §2

SK-MEL-28 = test: NCI sulforhodamine B assay; type: cell-based, human
Protocol: as §1, §2

UACC-62 = test: NCI sulforhodamine B assay; type: cell-based, human
Protocol: as §1, §2

SK-MEL-2 = test: NCI sulforhodamine B assay; type: cell-based, human
Protocol: as §1, §2

HOP-92 = test: NCI sulforhodamine B assay; type: cell-based, human
Protocol: as §1, §2

SW-620 = test: NCI sulforhodamine B assay; type: cell-based, human; settings: for GI50: Homo sapiens, read-out: Log10 GI50 (converted)
Protocol: as §1, §2

EKVX = test: NCI sulforhodamine B assay; type: cell-based, human
Protocol: as §1, §2

Leukemia = settings: leukemia cell lines, 48 h
solid tumors = settings: solid tumor cell lines, 48 h
CNS = settings: cns cancer cell lines, 48 h
Renal = settings: renal cancer cell lines, 48 h
SC Lung = settings: sc lung cancer cell lines, 48 h

For `COC(=O)C1CC2=C(C(=O)c3c(cc4ccccc4c3O)C2=O)C(O[C@H]2C[C@H](NC(=O)C(F)(F)F)[C@H](O)[C@H](C)O2)O1` (mixture of isomers) [BCH-242, (1'S,1R,3S) and (1'S, 1S,3R)-Methyl[11-hydroxy-1-2',3',6'-trideoxy-3-trifluroacetamido-L-lyxohexopyranose)-5,12-dioxo-3,4,5,12-tetrahydroanthraceno[2,3-c]pyran-3-yl]formate], the “Log10 LC50” value (P388/ADR; 2880 min) was > -4.00 log molar, the CC50 (P388/ADR; Mus musculus, 48 h, read-out: Log10 LC50, P388/ADR (converted)) was 69.2 µM and the GI50 (P388/ADR; Mus musculus, read-out: Log10 GI50 (converted)) was 2.34 µM and 0.324 µM. For the same compound, the CC50 (P388; read-out: Log10 LC50 (converted)) was > 100 µM, the IC100 (P388; read-out: Log10 TGI) was > 100 µM and the CC50 (XF-498 L; XF498, 48 h, read-out: Log10 LC50 (converted)) was 6.03 µM. For the same compound, the IC100 (XF-498 L; XF498, 48 h, XF-498 L, read-out: Log10 TGI (converted)) was 3.16 µM, the GI50 (XF-498 L; XF498, XF-498 L, read-out: Log10 GI50 (converted)) was 1.62 µM and the IC100 (K-562) was 4.47 µM. For the same compound, the CC50 (HCT-116; HCT-116, 48 h, read-out: Log10 LC50 (converted)) was 0.933 µM, the IC100 (HCT-116; HCT-116, 48 h, read-out: Log10 TGI (converted)) was 0.355 µM and the GI50 (HCT-116; HCT-116, read-out: Log10 GI50 (converted)) was 0.132 µM. The CC50 (SNB-78) was > 100 µM, the IC100 (MOLT-4) was 3.24 µM and the GI50 (OVCAR-8; OVCAR-8, OVCAR-8) was 0.224 µM. The GI50 (OVCAR-8; OVCAR-8) was 3.24 µM, the GI50 (OVCAR-3; OVCAR-3, OVCAR-3) was 1.51 µM and the GI50 (OVCAR-3; OVCAR-3) was 0.251 µM. The “Log10 GI50” value (HOP-18; HOP-18) was -5.94 log molar, the “Log10 TGI” value (HOP-18; HOP-18) was -5.45 log molar and the “Log10 LC50” value (HOP-18; HOP-18, 2880 min) was -4.92 log molar. For the same compound, the IC100 (HOP-18; Homo sapiens, HOP-18, 48 h, HOP-18, read-out: Log10 TGI (converted)) was 4.9 µM, the CC50 (HOP-18; Homo sapiens, HOP-18, 48 h, read-out: Log10 LC50, HOP-18 (converted)) was 16.6 µM and the GI50 (HOP-18; Homo sapiens, HOP-18, HOP-18, read-out: Log10 GI50 (converted)) was 1.91 µM. For the same compound, the CC50 (LOX-IMVI; Homo sapiens, LOX IMVI, 48 h, read-out: Log10 LC50, LOX-IMVI (converted)) was 5.75 µM, the “Log10 LC50” value (LOX-IMVI; LOX-IMVI, 2880 min) was -5.43 log molar and the CC50 (SK-MEL-28; Homo sapiens, SK-MEL-28, 48 h, read-out: Log10 LC50, SK-MEL-28 (converted)) was 7.76 µM. The “Log10 LC50” value (SK-MEL-28; SK-MEL-28, 2880 min) was -5.37 log molar, the IC100 (UACC-62; Homo sapiens, UACC-62, 48 h, UACC-62, read-out: Log10 TGI (converted)) was 3.16 µM and the CC50 (UACC-62; Homo sapiens, UACC-62, 48 h, read-out: Log10 LC50, UACC-62 (converted)) was 5.62 µM. For the same compound, the “Log10 TGI” value (UACC-62; UACC-62) was -5.77 log molar, the “Log10 LC50” value (UACC-62; UACC-62, 2880 min) was -5.37 log molar and the CC50 (SK-MEL-2; Homo sapiens, SK-MEL-2, 48 h, read-out: Log10 LC50, SK-MEL-2 (converted)) was 5.75 µM. The “Log10 LC50” value (SK-MEL-2; SK-MEL-2, 2880 min) was -5.39 log molar, the “Log10 LC50” value (HOP-92; HOP-92, 2880 min) was -5.36 log molar and the CC50 (HOP-92; Homo sapiens, HOP-92, 48 h, read-out: Log10 LC50, HOP-92 (converted)) was 6.76 µM. For the same compound, the GI50 (SW-620; SW-620, SW-620) was > 100 µM, the GI50 (SW-620; SW-620) was 1.32 µM and the “Log10 LC50” value (SW-620; SW-620, 2880 min) was -5.19 log molar. For the same compound, the “Log10 GI50” value (EKVX) was -5.83 log molar, the “Log10 LC50” value (EKVX; 2880 min) was -5.27 log molar and the CC50 (EKVX; Homo sapiens, 48 h, read-out: Log10 LC50, EKVX (converted)) was 6.31 µM. It also gave an IC100 (EKVX; Homo sapiens, 48 h, read-out: Log10 TGI (converted)) of 3.39 µM and a GI50 (EKVX; Homo sapiens, read-out: Log10 GI50 (converted)) of 1.78 µM.

“Methyl(11-hydroxy-5,12-dioxo-3,4,5,12-tetrahydroanthraceno[2,3-c]pyran-3-yl)ketone and Methyl(5-hydroxy-5,12-dioxo-3,4,5,12-tetrahydroanthraceno[2,3-c]pyran-3-yl)ketone [BCH-687]” was tested, and the “Average LOG10 LC50” value (Leukemia) was > -4.00 log molar, the “Average LOG10 LC50, Mean Potency in solid tumors” value (solid tumors) was -4.21(± 0.05) log molar and the “Average LOG10 LC50” value (CNS) was > -4.15 log molar. For the same compound, the “Average LOG10 LC50” value (Renal) was > -4.21 log molar and the “Average LOG10 LC50” value (SC Lung) was > -4.18 log molar.
